Earlier results on one compound are cited in patent US20030119882A1, “Solid pharmaceutical composition containing torasemide” (priority 2001, published 2003).

The conditions of the series: present in very fine dispersion in a pharmaceutical tablet; prior art, cf. EP 212 537 A.

Regarding `Cc1cccc(Nc2ccncc2S(=O)(=O)NC(=O)NC(C)C)c1` [torasemide of the modification II, 1-isopropyl-3-[(4-m-toluidino-3-pyridyl)sulphonyl]urea], the “Rearrangement of modification II to modification I” value is on record as “rearranges more or less rapidly to the modification I”.
